This note sets out measurements from the OPERA property sets (Mansouri et al. 2018).

As a reminder, the logP is a log measure of how a compound divides between an organic and an aqueous phase. Read a low logP as a more hydrophilic compound. Turning to `Nc1ccc(S(=O)(=O)c2cccc(N)c2)cc1`, the logP was found to be 1.03. As for `Nc1ccc(S(=O)(=O)c2ccc([N+](=O)[O-])cc2)cc1`, the logP turned out to be 2.04. With `COc1cc(OC)c(S(=O)(=O)c2ccc(N)cc2)c(OC)c1` the figure was 1.03. Under `Nc1ccc(S(=O)(=O)c2ccccc2N)cc1` stands 1.56; under `COc1ccc(S(=O)(=O)c2ccc(N)cc2)cc1`, 1.96. As to `Cc1cc(C)c(S(=O)(=O)c2ccc(N)cc2)c(C)c1`, the logP was determined as 3.06.

In turn, `Nc1ccc(S(=O)(=O)c2ccc(NO)cc2)cc1` displayed a logP of 0.88.

Molecule `CCN(CC)C(=O)c1ccc(S(=O)(=O)c2ccc(N)cc2)cc1` had a logP of 1.44. Turning to `CC(=O)c1ccc(S(=O)(=O)c2ccc(N)cc2)cc1`, the logP was found to be 1.67.

The molecule `Cc1ccc(S(=O)(=O)c2ccc(N)cc2)cc1` gave a logP of 2.4. The molecule `Nc1ccc(S(=O)(=O)c2ccc(N)cc2N)cc1` displayed a logP of 0.38. With `Nc1ccc(S(=O)(=O)c2ccc(Br)cc2)cc1` the figure was 2.85. With `Nc1ccc(S(=O)(=O)c2ccc(O)cc2)cc1` the figure was 1.57; with `NC(=O)c1ccc(S(=O)(=O)c2ccc(N)cc2)cc1`, 0.9. Regarding `COC(=O)c1ccc(S(=O)(=O)c2ccc(N)cc2)cc1`, the logP was 2.13. The molecule `Nc1ccc(S(=O)(=O)c2ccc(Cl)cc2Cl)cc1` showed a logP of 3.12.

Regarding `Nc1ccc(S(=O)(=O)c2ccc(Cl)cc2)cc1`, the logP stood at 2.57. With `N#Cc1ccc(S(=O)(=O)c2ccc(N)cc2)cc1` the figure was 1.63; with `CCN(CC)c1ccc(S(=O)(=O)c2ccc(N)cc2)cc1`, 3. Under `COc1ccc(S(=O)(=O)c2ccc(N)cc2)c(OC)c1` stands 1.64; under `Cc1ccc(S(=O)(=O)c2ccc(N)cc2)c(C)c1`, 2.71; under `CN(C)c1ccc(S(=O)(=O)c2ccc(N)cc2)cc1`, 1.99. With `Nc1ccc(S(=O)(=O)c2ccccc2)cc1` the figure was 1.76; with `CCNc1ccc(S(=O)(=O)c2ccc(N)cc2)cc1`, 1.98; with `Nc1ccc(S(=O)(=O)c2ccc(O)cc2O)cc1`, 1.29. Consider `Nc1ccc(S(=O)(=O)c2ccc([N+](=O)[O-])cc2[N+](=O)[O-])cc1`, for which the logP came to 1.84.
